The first assay deals with T1, N39 (gp41 NHR-derived target mimic peptide) (Human immunodeficiency virus type 1 group M subtype B, UniProt P04578).
T1 construct: we further used the NHR-derived peptide N39
T1 sequence (P04578 528-566): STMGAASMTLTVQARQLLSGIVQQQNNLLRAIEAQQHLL
Nature of the assay: CD spectroscopy of inhibitor complexed with N39. The assay is classed as binding, HIV-1. Particulars: each peptide 10 μM in PBS, repeated two times, representative data.
Sequence of N36 (gp41 NHR-derived target mimic peptide) (P04578 546-581): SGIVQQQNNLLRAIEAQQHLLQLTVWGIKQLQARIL
enfuvirtide: the “α-helical content of complex with N39” value stood at 53%.

Another assay addresses N36 (gp41 NHR-derived target mimic peptide) (Human immunodeficiency virus type 1 group M subtype B, UniProt P04578). Nature of the assay: CD spectroscopy of inhibitor complexed with N36. The assay is classed as binding, HIV-1. The note with it: α-helical content of complex, each peptide 10 μM in PBS pH 7.2, 20 C, [θ]222; repeated two times, representative data.
For Ac-MTWEEWDKKIEEYTKKIEEL-NH2 [MT-SC18EK], the “CD data (with N36) Helix (%)” value amounted to 56.3%.
The same measure, in the same setting: the result for “Ac-MTWEEWDKKIEEYTKKIEELI-NH2 [MT-SC19EK]” reads 84.8%; that for “Ac-MTWEEWDKKIEEYTKKIEELIK-NH2 [MT-SC20EK]”, 82%; that for “Ac-MTWEEWDKKIEEYTKKIEELIKK-NH2 [MT-SC21EK]”, 83.9%.
On the same count and under the same terms, in the case of “Ac-MTWEEWDKKIEEYTKKIEELIKKS-NH2 [MT-SC22EK]” it was 84.6%; in that of “Ac-MTWEEWDKKIEEYTKKIEELIKKSE-NH2 [MT-SC23EK]”, 84.1%.
Same read-out and setting: in the case of “Ac-MTWEEWDKKIEEYTKKIEELIKKSEE-NH2 [MT-SC24EK]” it was 83.8%; in that of “Ac-MTWEEWDKKIEEYTKKIEELIKKSEEQ-NH2 [MT-SC25EK]”, 84.9%; in that of “Ac-MTWEEWDKKIEEYTKKIEELIKKSEEQQ-NH2 [MT-SC26EK]”, 85.2%.
Regarding “Ac-MTWEEWDKKIEEYTKKIEELIKKSEEQQK-NH2 [MT-SC27EK]”, the “CD data (with N36) Helix (%)” value turned out to be 87.4%.
The same measure, in the same setting: the result for “Ac-MTWEEWDKKIEEYTKKIEELIKKSEEQQKK-NH2 [MT-SC28EK]” reads 84.5%; that for “Ac-MTWEEWDKKIEEYTKKIEELIKKSEEQQKKN-NH2 [MT-SC29EK]”, 92%.
Take “Ac-MTWEEWDKKIEEYTKKIEELIKKSEEQQKKNE-NH2 [MT-SC30EK]”: the “CD data (with N36) Helix (%)” value is listed as 92.6%.
On to “Ac-MTWEEWDKKIEEYTKKIEELIKKSEEQQKKNEK-NH2 [MT-SC31EK]”, for which the “CD data (with N36) Helix (%)” value turned out to be 92.4%.
Still for that read-out and setting: in the case of “Ac-MTWEEWDKKIEEYTKKIEELIKKSEEQQKKNEKE-NH2 [MT-SC32EK]” it was 91.8%.
On the same count and under the same terms, in the case of “Ac-MTWEEWDKKIEEYTKKIEELIKKSEEQQKKNEKEL-NH2 [MT-SC33EK]” it was 93.8%; in that of “Ac-MTWEEWDKKIEEYTKKIEELIKKSEEQQKKNEKELK-NH2 [MT-SC34EK]”, 92%; in that of “Ac-MTWEEWDRKIEEYTKKIEELIKKSQNQQEKN-NH2 [MT-WQ-EKN]”, 90.6%.
Take “Ac-MTWEEWDRKIEEYTKKIEELIKKSQNQQIDL-NH2 [MT-WQ-IDL, reference compound]”: the “CD data (with N36) Helix (%)” value came to 86.9%.
Same read-out and setting: in the case of Ac-WEEWDKKIEEYTKKIEELI-NH2 [SC19EK] it was 80.3%; in that of Ac-WEEWDKKIEEYTKKIEELIK-NH2 [SC20EK], 78.8%; in that of Ac-WEEWDKKIEEYTKKIEELIKK-NH2 [SC21EK], 82.8%.
The same measure, in the same setting: in the case of Ac-WEEWDKKIEEYTKKIEELIKKS-NH2 [SC22EK] it was 85.5%.
The same measure, in the same setting: the result for Ac-WEEWDKKIEEYTKKIEELIKKSE-NH2 [SC23EK] reads 80.7%.
In the case of “Ac-WEEWDKKIEEYTKKIEELIKKSEE-NH2 [SC24EK]”, the “CD data (with N36) Helix (%)” value was 79.9%.
On the same count and under the same terms, the result for “Ac-WEEWDKKIEEYTKKIEELIKKSEEQ-NH2 [SC25EK]” reads 78.4%; that for “Ac-WEEWDKKIEEYTKKIEELIKKSEEQQ-NH2 [SC26EK]”, 83.1%; that for “Ac-WEEWDKKIEEYTKKIEELIKKSEEQQK-NH2 [SC27EK]”, 85.7%.
As for “Ac-WEEWDKKIEEYTKKIEELIKKSEEQQKK-NH2 [SC28EK]”, the “CD data (with N36) Helix (%)” value turned out to be 87.7%.
On to “Ac-WEEWDKKIEEYTKKIEELIKKSEEQQKKN-NH2 [SC29EK, reference compound]”, for which the “CD data (with N36) Helix (%)” value was found to be 88.9%.
On the same count and under the same terms, the result for “Ac-WEEWDKKIEEYTKKIEELIKKSEEQQKKNE-NH2 [SC30EK]” reads 92.9%.
“Ac-WEEWDKKIEEYTKKIEELIKKSEEQQKKNEK-NH2 [SC31EK]”: the “CD data (with N36) Helix (%)” value is given as 91.4%.
Still for that read-out and setting: the result for “Ac-WEEWDKKIEEYTKKIEELIKKSEEQQKKNEKE-NH2 [SC32EK]” reads 93.2%.
On the same count and under the same terms, in the case of “Ac-WEEWDKKIEEYTKKIEELIKKSEEQQKKNEKEL-NH2 [SC33EK]” it was 94.1%.
Regarding “Ac-WEEWDKKIEEYTKKIEELIKKSEEQQKKNEKELK-NH2 [SC34EK, reference compound]”, the “CD data (with N36) Helix (%)” value was found to be 92.6%.
“Ac-WEEWDRKIEEYTKKIEELIKKSQNQQEKN-NH2 [WQ-EKN]”: the “CD data (with N36) Helix (%)” value is on record as 89.5%.
As to “Ac-WEEWDRKIEEYTKKIEELIKKSQNQQIDL-NH2 [WQ-IDL, reference compound]”, the “CD data (with N36) Helix (%)” value is recorded as 87.8%.
The same measure, in the same setting: the result for “Ac-WMEWDREINNYTSLIHSLIEESQNQQEKAEQELL-NH2 [C34N145A]” reads 81%.

(Values after publication PMC6669600 (Viruses, 2019).)
